# Results reported in patent publication US20120277171A1, “Warmi®, natural alternative for the treatment of menopause” (priority 2011, published 2012).
# Columns and labels:
# [1] = system: FSH, LH, estradiol, progesterone and DHEAS; test: Clinical trial: hormone count in serum (immunochemical luminescence); assay type: in vivo, human; details: for reduction of FSH: FIG. 2
# Protocol: Laboratory tests were requested prior to the beginning of the treatments (basal levels) and after 3 and 6 months. The levels of the following hormones were measured in the Laboratory of the Molecular Biotechnology Unit of the Research and Development Laboratories of the Universidad Peruana Cayetano Heredia: FSH, LH, estradiol, progesterone and DHEAS. The following normal menopausal values shall be considered: FSH of between 25.0 and 134.8 mlU/mL, LH of between 7.7 and 58.5 mlU/mL, estradiol between <10.0 and 39.5 pg/mL and progesterone between 0.20 and 1.00 ng/mL.
# In order to determine the hormonal levels, a peripheral blood test was taken from each patient on an empty stomach and the serum FSH, LH, estradiol, progesterone and DHEAS levels were taken using the immunochemical luminescence method, following the standardized procedures of the laboratory.
# [2] = human, in vivo
# Protocol: (§1) Prospective, longitudinal, double blind, three stage, comparative clinical and laboratory evaluation trials on symptomatic postmenopausal women who attended the menopause medical units of the Hospital Nacional Cayetano Heredia, Hospital Nacional Arzobispo Loayza, Hospital Docente Madre Niño San Bartolomé and the medical unit of the Universidad Nacional Agraria La Molina.
# (§2) Warmi® capsules (510 mg) were manufactured by Laboratorios Hersil S.A. Capsules were manufactured following Good Manufacturing Practices (GMP) and following the Hazard Analysis and Critical Control Points (HACCP). Warmi® is a natural proprietary blend composed of β-sitosterol, glucosinolates and citrus flavonoids (hesperidin). […] Patients received 3 capsules a day to be taken every 6 hours.
# Tibolone was used as HRT. Tibolone was masked in a capsule with the same appearance as the previous groups. Patients received 3 capsules a day to be taken every 6 hours. […]
# The statistical analysis was done using a SPSS statistical package (version 11.0). The results were expressed as a mean±standard error (SE), and a p<0.05 was considered significant. The variables were analyzed as a change in relation to the basal level and compared by treatment groups.
# There was a small decrease in the hematocrit (1.43%) of the placebo group. […] Upon observing the other quantifiable parameters, no significant changes are noticed.
# [3] = system: TNF-α, INF-y and IL-6 cytokines; test: Clinical trial: cytokine count; assay type: in vivo, human
# Protocol: Peripheral blood samples were obtained in vacutainer test tubes with anticoagulant (Becton Dickenson, BD). The biological sample was previously centrifuged and stored at a −70° C. for the respective cytokine count. Type Th1: TNF-α, INF-y and Th2: IL-6 cytokines were counted. The manufacturer's instructions were followed and the cytokine concentrations were calculated according to the specifications (Pharmingen, BD). Cytokines were measured prior to and upon conclusion of the treatment.
# (§3) The levels of cytokines, osteocalcin, growth hormone and C-reactive protein were measured in the Laboratory of the Molecular Biotechnology Unit of the Research and Development Laboratories of the Universidad Peruana Cayetano Heredia (UPCH). All laboratory procedures were conducted in duplicate, standards were used to ensure the reproducibility and quality of the results.
# [4] = Clinical trial: anthropometric parameters and vital signs; assay type: in vivo, human; details: mean ± SD
# Protocol: as §1, §2
# Tibolone was used as HRT. Tibolone was masked in a capsule with the same appearance as the previous groups. Patients received 3 capsules a day to be taken every 6 hours. Tibolone is the latest treatment for menopausal symptoms in Peru. Tibolone is a synthetic steroid with estrogenic, progestogenic and androgenic activity, used for the treatment of menopausal symptoms and post-menopausal osteoporosis. It has been observed that Tibolone reduces the level of triglycerides, HDL, total cholesterol and with no effect on the LDL.
# The sample group was integrated by symptomatic postmenopausal women who attend the menopause centers of the participating hospitals. 135 participants were accepted in the study and each hospital recruited the patients that were randomly assigned to the three treatment groups: Warmi®, Tibolone and placebo.
# The statistical analysis was done using a SPSS statistical package (version 11.0). […] The variables were analyzed as a change in relation to the basal level and compared by treatment groups.
# human osteocalcin = test: Clinical trial: plasma osteocalcin (EASIA); assay type: in vivo; details: after 6 months of treatment; FIG. 13
# Protocol: Plasma osteocalcin was measured through the EASIA technique (Enzyme Amplified Sensitivity Immunoassay) using monoclonal antibodies against different epitopes of human osteocalcin (Biosource International, Inc., USA), with a sensitivity of 0.4 ng/mL. Human osteocalcin was measured at the beginning of the treatment and after 6 months of treatment, according to the manufacturer's instructions.
# as §3
# C-reactive protein = test: Clinical trial: C-reactive protein (ELISA); assay type: in vivo, human; details: after 6 months of treatment
# Protocol: C-reactive protein from human plasma (Diagnostic Automation Inc., USA) was tested with a very sensitive ELISA using a monoclonal antibody against a different antigenic determinant on the C-Reactive Protein molecule, with a sensitivity of […]. C-reactive protein (CRP) was measured prior to treatment and after 6 months of treatment, according to the manufacturer's instructions.
# as §3
# [5] = system: symptomatic postmenopausal women; test: Greene Climateric Scale; assay type: in vivo, human; details: FIGS. 31-35
# Excerpt: The changes are observed in sub-categories of Anxiety, Depression, Vasomotor Symptoms and Sexual Aspects.
# [6] = system: triglycerides (TG), total cholesterol (TC), HDL, LDL and serum glucose levels; test: Clinical trial: lipids and glucose count; assay type: in vivo, human
# Protocol: The triglycerides (TG), total cholesterol (TC), HDL, LDL and serum glucose levels (Valtek S.A.) were measured based on a peripheral blood test prior to the start of the treatment, at months 1, 3 and 6 following treatment. TG, TC and HDL levels were measured with a MicroLab semiautomatic analyzer, through an enzymatic colorimetric technique, using the manufacturer's manual and procedures. Normal values shall be TC<200 mg/dL, HDL>35 mg/dL, LDL<130 mg/dL and TG<170 mg/dL.
smiles,measurement,setting,value
C#C[C@]1(O)CC[C@H]2[C@@H]3[C@H](C)CC4=C(CCC(=O)C4)[C@H]3CC[C@@]21C [Tibolone],reduction of FSH,[1]; month six of treatment,16.20%
same,reduction of FSH,[1]; month three of treatment,29.58%
same,drop of DHEAS in serum,"[1]; month three, FIG. 3",12.87%
same,decrease of progesterone,"[1]; month three, FIG. 4",29.70%
same,increase in the hematocrit,[2],3.53%
same,effect on interferon gamma (INF-y) (in words),"[3]; FIG. 16, none were significant",slight increases
same,effect on Interleukin 6 (IL-6) levels (in words),"[3]; FIG. 17, Tibolone: after 3 months alone, Warmi: after both treatment periods",significantly reduced
same,Diastolic BP,[4]; 3rd Month,72.5 ± 10.83
same,Heart Rate,[4]; 3rd Month,63.66 ± 1.96
same,Pulse Pressure,[4]; 3rd Month,64 ± 1.78
same,Respiratory Rate,[4]; 3rd Month,16.33 ± 0.98
same,Systolic BP,[4]; 3rd Month,113.33 ± 8.16
same,Diastolic BP,[4]; 6th Month,73.16 ± 11.4
same,Heart Rate,[4]; 6th Month,62.67 ± 2.42
same,Pulse Pressure,[4]; 6th Month,62.67 ± 2.42
same,Systolic BP,[4]; 6th Month,110 ± 8.98
same,Respiratory Rate,"[4]; 6th Month, *p ≦ 0.05",16.16 ± 0.41
same,effect on osteocalcin levels (in words),human osteocalcin,significant reduction
same,increase of CRP (change in percentage),C-reactive protein,26.83%
same,"Greene survey: sub-categories Anxiety, Depression, Vasomotor Symptoms and Sexual Aspects (in words)",[5],Changes were also observed
same,effect on triglycerides levels (in words),[6]; FIG. 8,significant decrease
same,effect on HDL levels (in words),"[6]; FIG. 9, Tibolone: after 1, 3 and 6 months of treatment",significant reduction
same,effect on LDL levels (in words),[6]; FIG. 10,significant reduction
same,effect on LDL/HDL ratio (in words),"[6]; FIG. 12, Tibolone: after six months, Warmi: after both 3 and 6 months",reduction
same,reduction of total cholesterol,"[6]; after six months of treatment, FIG. 7",12.37%
same,reduction in the level of glycemia,"[6]; at the end of the study, FIG. 6",7.39%
